From patent publication US12522595B2, “Bicyclic ether O-glycoprotein-2-acetamido-2-deoxy-3-D-glucopyranosidase inhibitors” (BIOGEN MA INC., priority 2019, dated 2026)

Molecular target: T1, Recombinant full length human OGA enzyme (Homo sapiens, UniProt O60502)
T1 construct: Recombinant full length human OGA enzyme was purchased from Origene; purchased Origene
T1 sequence (O60502 1-916): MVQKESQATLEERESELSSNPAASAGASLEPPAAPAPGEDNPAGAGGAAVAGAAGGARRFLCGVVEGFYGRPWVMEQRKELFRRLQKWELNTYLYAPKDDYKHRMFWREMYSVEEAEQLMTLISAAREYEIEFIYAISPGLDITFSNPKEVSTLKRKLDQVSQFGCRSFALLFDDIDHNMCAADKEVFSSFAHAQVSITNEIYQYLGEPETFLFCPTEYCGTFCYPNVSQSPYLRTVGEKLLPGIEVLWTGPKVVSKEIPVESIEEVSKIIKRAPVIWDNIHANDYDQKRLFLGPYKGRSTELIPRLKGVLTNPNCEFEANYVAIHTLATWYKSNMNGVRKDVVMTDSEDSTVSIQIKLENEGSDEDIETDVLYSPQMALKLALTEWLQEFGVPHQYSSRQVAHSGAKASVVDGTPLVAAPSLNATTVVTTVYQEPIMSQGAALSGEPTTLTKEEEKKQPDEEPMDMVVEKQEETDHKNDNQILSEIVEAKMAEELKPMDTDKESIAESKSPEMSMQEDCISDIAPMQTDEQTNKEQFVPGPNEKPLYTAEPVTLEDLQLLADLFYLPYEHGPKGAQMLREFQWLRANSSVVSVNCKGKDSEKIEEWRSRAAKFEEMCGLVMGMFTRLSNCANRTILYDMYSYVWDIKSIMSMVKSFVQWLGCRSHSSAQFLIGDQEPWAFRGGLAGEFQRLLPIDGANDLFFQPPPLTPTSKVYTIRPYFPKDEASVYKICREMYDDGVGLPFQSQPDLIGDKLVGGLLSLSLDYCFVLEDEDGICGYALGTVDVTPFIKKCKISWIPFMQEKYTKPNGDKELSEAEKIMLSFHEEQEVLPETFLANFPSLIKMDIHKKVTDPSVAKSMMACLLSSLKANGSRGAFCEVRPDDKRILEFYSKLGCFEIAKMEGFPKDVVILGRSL
Assay: OGA enzyme inhibition biochemical assay
Conditions: 1 nM OGA, 100 μM 4-MUGlcNAc (Km), pH 6.4, 90 minutes at room temperature, 10-point dose-response from 20 μM
Procedure, shortened: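 1 nM OGA with 100 μM 4-MUGlcNAc (Km) in McIlvaine buffer pH 6.4, 0.01% BSA, 90 min at room temperature; quenched with 3M glycine pH 10, fluorescence Ex 355/Em 460 nm. 10-point, 4-fold dilutions from 20 μM; 4-parameter variable-slope fit.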

CC(=O)Nc1nc(F)c(CN2C[C@H](Oc3ccc4ccccc4n3)C[C@@H]2C)s1 [Example 78, N-(4-fluoro-5-(((2S,4R)-2-methyl-4-(quinolin-2-yloxy)pyrrolidin-1-yl)methyl)thiazol-2-yl)acetamide]
IC50: < 1 nM

CC(=O)Nc1nc(F)c(CN2C[C@H](Oc3nccn4ccnc34)C[C@@H]2C)s1 [Example 96, N-(4-fluoro-5-(((2S,4R)-4-(imidazo[1,2-a]pyrazin-8-yloxy)-2-methylpyrrolidin-1-yl)methyl)thiazol-2-yl)acetamide]
IC50: < 1 nM

CC(=O)Nc1nc(F)c(CN2C[C@H](Oc3cccc4nnnn34)C[C@@H]2C)s1 [Example 147, N-(4-fluoro-5-(((2S,4R)-2-methyl-4-(tetrazolo[1,5-a]pyridin-5-yloxy)pyrrolidin-1-yl)methyl)thiazol-2-yl)acetamide]
IC50: < 1 nM
